Results: ChEMBL document CHEMBL1671673, “In vitro activity of colistin (polymyxin E) against 3,480 isolates of gram-negative bacilli obtained from patients in Canadian hospitals in the CANWARD study, 2007-2008” (Antimicrob Agents Chemother, 2009)

Legend:
Assay type in all cases: functional, organism-based
Design in all cases: scale not given: the % may be the effect or the level left
Pseudomonas aeruginosa [1] = assay: Antibacterial activity against Gentamicin-resistant Pseudomonas aeruginosa assessed as susceptible isolates at minimum inhibitory concentration of 8 ug/ml by CLSI broth microdilution method
Pseudomonas aeruginosa [2] = assay: Antibacterial activity against Meropenem-resistant Pseudomonas aeruginosa assessed as susceptible isolates at minimum inhibitory concentration of 4 ug/ml by CLSI broth microdilution method
Pseudomonas aeruginosa [3] = assay: Antibacterial activity against Piperacillin-resistant Pseudomonas aeruginosa assessed as susceptible isolates at minimum inhibitory concentration of 1 ug/ml by CLSI broth microdilution method
Pseudomonas aeruginosa [4] = assay: Antibacterial activity against Piperacillin-resistant Pseudomonas aeruginosa assessed as susceptible isolates at minimum inhibitory concentration of 2 ug/ml by CLSI broth microdilution method
Pseudomonas aeruginosa [5] = assay: Antibacterial activity against Piperacillin-resistant Pseudomonas aeruginosa assessed as susceptible isolates at minimum inhibitory concentration of 4 ug/ml by CLSI broth microdilution method
Pseudomonas aeruginosa [6] = assay: Antibacterial activity against MDR3 Pseudomonas aeruginosa assessed as susceptible isolates at minimum inhibitory concentration of 0.5 ug/ml by CLSI broth microdilution method
Pseudomonas aeruginosa [7] = assay: Antibacterial activity against MDR4 Pseudomonas aeruginosa assessed as susceptible isolates at minimum inhibitory concentration of 1 ug/ml by CLSI broth microdilution method
Serratia marcescens [8] = assay: Antibacterial activity against Serratia marcescens assessed as susceptible isolates at minimum inhibitory concentration of 4 ug/ml by CLSI broth microdilution method
Serratia marcescens [9] = assay: Antibacterial activity against Serratia marcescens assessed as susceptible isolates at minimum inhibitory concentration of 0.5 ug/ml by CLSI broth microdilution method
Proteus mirabilis [10] = assay: Antibacterial activity against Proteus mirabilis assessed as susceptible isolates at minimum inhibitory concentration of 2 ug/ml by CLSI broth microdilution method
Proteus mirabilis [11] = assay: Antibacterial activity against Proteus mirabilis assessed as susceptible isolates at minimum inhibitory concentration of 0.25 ug/ml by CLSI broth microdilution method
Proteus mirabilis [12] = assay: Antibacterial activity against Proteus mirabilis assessed as susceptible isolates at minimum inhibitory concentration of 0.12 ug/ml by CLSI broth microdilution method
Enterobacter cloacae = assay: Antibacterial activity against Enterobacter cloacae assessed as susceptible isolates at minimum inhibitory concentration of 1 ug/ml by CLSI broth microdilution method
Escherichia coli [13] = assay: Antibacterial activity against ESBL-producing Escherichia coli assessed as susceptible isolates at minimum inhibitory concentration of 8 ug/ml by CLSI broth microdilution method
Escherichia coli [14] = assay: Antibacterial activity against ESBL-producing Escherichia coli assessed as susceptible isolates at minimum inhibitory concentration of 0.5 ug/ml by CLSI broth microdilution method
Escherichia coli [15] = assay: Antibacterial activity against ESBL-producing Escherichia coli assessed as susceptible isolates at minimum inhibitory concentration of 0.25 ug/ml by CLSI broth microdilution method
Escherichia coli [16] = assay: Antibacterial activity against ESBL-producing Escherichia coli assessed as susceptible isolates at minimum inhibitory concentration of <=0.06 ug/ml by CLSI broth microdilution method
[17] = system: Stenotrophomonas maltophilia; assay: Antibacterial activity against Stenotrophomonas maltophilia assessed as susceptible isolates at minimum inhibitory concentration of <=0.06 ug/ml by CLSI broth microdilution method
[18] = system: Stenotrophomonas maltophilia; assay: Antibacterial activity against Stenotrophomonas maltophilia assessed as susceptible isolates at minimum inhibitory concentration of >16 ug/ml by CLSI broth microdilution method
Klebsiella aerogenes = assay: Antibacterial activity against Enterobacter aerogenes assessed as susceptible isolates at minimum inhibitory concentration of <=0.06 ug/ml by CLSI broth microdilution method
Acinetobacter baumannii [19] = assay: Antibacterial activity against Acinetobacter baumannii assessed as susceptible isolates at minimum inhibitory concentration of 0.5 ug/ml by CLSI broth microdilution method
Acinetobacter baumannii [20] = assay: Antibacterial activity against Acinetobacter baumannii assessed as susceptible isolates at minimum inhibitory concentration of 8 ug/ml by CLSI broth microdilution method
Acinetobacter baumannii [21] = assay: Antibacterial activity against Acinetobacter baumannii assessed as susceptible isolates at minimum inhibitory concentration of >16 ug/ml by CLSI broth microdilution method
Pseudomonas aeruginosa [22] = assay: Antibacterial activity against Amikacin-resistant Pseudomonas aeruginosa assessed as susceptible isolates at minimum inhibitory concentration of 1 ug/ml by CLSI broth microdilution method
Pseudomonas aeruginosa [23] = assay: Antibacterial activity against Ciprofloxacin-resistant Pseudomonas aeruginosa assessed as susceptible isolates at minimum inhibitory concentration of 4 ug/ml by CLSI broth microdilution method
Pseudomonas aeruginosa [24] = assay: Antibacterial activity against Ciprofloxacin-resistant Pseudomonas aeruginosa assessed as susceptible isolates at minimum inhibitory concentration of 16 ug/ml by CLSI broth microdilution method
Klebsiella oxytoca [25] = assay: Antibacterial activity against Klebsiella oxytoca assessed as susceptible isolates at minimum inhibitory concentration of 8 ug/ml by CLSI broth microdilution method
Klebsiella oxytoca [26] = assay: Antibacterial activity against Klebsiella oxytoca assessed as susceptible isolates at minimum inhibitory concentration of 2 ug/ml by CLSI broth microdilution method
Klebsiella oxytoca [27] = assay: Antibacterial activity against Klebsiella oxytoca assessed as susceptible isolates at minimum inhibitory concentration of 0.5 ug/ml by CLSI broth microdilution method
Klebsiella oxytoca [28] = assay: Antibacterial activity against Klebsiella oxytoca assessed as susceptible isolates at minimum inhibitory concentration of 0.25 ug/ml by CLSI broth microdilution method
Klebsiella oxytoca [29] = assay: Antibacterial activity against Klebsiella oxytoca assessed as susceptible isolates at minimum inhibitory concentration of 0.12 ug/ml by CLSI broth microdilution method
Klebsiella oxytoca [30] = assay: Antibacterial activity against Klebsiella oxytoca assessed as susceptible isolates at minimum inhibitory concentration of <=0.06 ug/ml by CLSI broth microdilution method

COLISTIN
Activity (Pseudomonas aeruginosa [1]): 99% | Activity (Pseudomonas aeruginosa [2]): 100% | Activity (Pseudomonas aeruginosa [3]): 37.5% | Activity (Pseudomonas aeruginosa [4]): 92.9% | Activity (Pseudomonas aeruginosa [5]): 100% | Activity (Pseudomonas aeruginosa [6]): 4% | Activity (Pseudomonas aeruginosa [7]): 42.3% | Activity (Serratia marcescens [8]): 1.9% | Activity (Serratia marcescens [9]): 0% | Activity (Proteus mirabilis [10]): 0% | Activity (Proteus mirabilis [11]): 0% | Activity (Proteus mirabilis [12]): 0% | Activity (Enterobacter cloacae): 82.3% | Activity (Escherichia coli [13]): 99.5% | Activity (Escherichia coli [14]): 82.4% | Activity (Escherichia coli [15]): 26.1% | Activity (Escherichia coli [16]): 0.1% | Activity [17]: 0% | Activity [18]: 100% | Activity (Klebsiella aerogenes): 0% | Activity (Acinetobacter baumannii [19]): 6.5% | Activity (Acinetobacter baumannii [20]): 93.5% | Activity (Acinetobacter baumannii [21]): 100% | Activity (Pseudomonas aeruginosa [22]): 42.1% | Activity (Pseudomonas aeruginosa [23]): 98.6% | Activity (Pseudomonas aeruginosa [24]): 98.6% | Activity (Klebsiella oxytoca [25]): 98.1% | Activity (Klebsiella oxytoca [26]): 95.4% | Activity (Klebsiella oxytoca [27]): 74.1% | Activity (Klebsiella oxytoca [28]): 18.5% | Activity (Klebsiella oxytoca [29]): 0% | Activity (Klebsiella oxytoca [30]): 0%
